Experimental data as given in PubChem BioAssay AID1259407 (Chemical Carcinogenesis Research Information System (CCRIS), 2018).
The source made the active and inactive calls. No rule for the calls is given here.

System: CCRIS mutagenicity, Ames/micronucleus/aberration tests
Assay: CCRIS mutagenicity studies
[1] = Test System: AMES SALMONELLA TYPHIMURIUM, Strain/Indicator: TA98, Metabolic Activation: NONE, Method: STANDARD PLATE
[2] = Test System: AMES SALMONELLA TYPHIMURIUM, Strain/Indicator: TA100, Metabolic Activation: NONE, Method: STANDARD PLATE

Compound: Clc1cnc(Oc2ccc(Oc3ncc(Cl)cc3Cl)cc2)c(Cl)c1
- mutagenic call [1]: inactive; negative
- mutagenic call (Test System: AMES SALMONELLA TYPHIMURIUM, Strain/Indicator: TA98, Metabolic Activation: RAT, LIVER, S-9, PHENOBARBITAL AND 5,6-BENZOFLAVONE, Method: STANDARD PLATE): inactive; negative
- mutagenic call (Test System: AMES SALMONELLA TYPHIMURIUM, Strain/Indicator: TA98, Method: STANDARD PLATE): inactive; negative
- mutagenic call [2]: inactive; negative
- mutagenic call (Test System: AMES SALMONELLA TYPHIMURIUM, Strain/Indicator: TA100, Metabolic Activation: RAT, LIVER, S-9, PHENOBARBITAL AND 5,6-BENZOFLAVONE, Method: STANDARD PLATE): inactive; negative
- mutagenic call (Test System: AMES SALMONELLA TYPHIMURIUM, Strain/Indicator: TA100, Method: STANDARD PLATE): inactive; negative
- mutagenic call (Test System: AMES SALMONELLA TYPHIMURIUM, Strain/Indicator: TA102, Metabolic Activation: NONE, Method: STANDARD PLATE): inactive; negative
- mutagenic call (Test System: AMES SALMONELLA TYPHIMURIUM, Strain/Indicator: TA102, Metabolic Activation: RAT, LIVER, S-9, PHENOBARBITAL AND 5,6-BENZOFLAVONE, Method: STANDARD PLATE): inactive; negative
- mutagenic call (Test System: AMES SALMONELLA TYPHIMURIUM, Strain/Indicator: TA102, Method: STANDARD PLATE): inactive; negative

Compound: [2H]C([2H])([2H])N=NO
- mutagenic call (Test System: AMES SALMONELLA TYPHIMURIUM, Strain/Indicator: TA1535, Metabolic Activation: NONE, Method: STANDARD PLATE): active; positive
- mutagenic call (Test System: E. COLI, Strain/Indicator: WP2, Metabolic Activation: NONE, Method: STANDARD PLATE): active; positive
- mutagenic call (Test System: E. COLI, Strain/Indicator: WP2 UVRA, Metabolic Activation: NONE, Method: STANDARD PLATE): active; positive

Compound: CC(C)(C)c1ccc(C(=O)ON(OCc2ccccc2)C(=O)c2ccccc2)cc1
- mutagenic call [2]: active; positive

Compound: Cc1c(N)nc([C@H](CC(N)=O)NC[C@H](N)C(N)=O)nc1C(=O)N[C@H](C(=O)N[C@H](C)[C@@H](O)[C@H](C)C(=O)N[C@H](C(=O)NCCc1nc(-c2nc(C(=O)NCCCN(C)CCCN=C(N)CC3CCC(Cl)CC3)cs2)cs1)[C@@H](C)O)[C@@H](O[C@@H]1O[C@@H](CO)[C@@H](O)[C@H](O)[C@@H]1O[C@H]1O[C@H](CO)[C@@H](O)[C@H](OC(N)=O)[C@@H]1O)c1cnc[nH]1 (stereo partly drawn)
- mutagenic call (Test System: AMES SALMONELLA TYPHIMURIUM, Strain/Indicator: TA94, Metabolic Activation: NONE, Method: PREINCUBATION): active; positive
- mutagenic call (Test System: AMES SALMONELLA TYPHIMURIUM, Strain/Indicator: TA102, Metabolic Activation: NONE, Method: PREINCUBATION): active; positive

Compound: N#Cc1ccc(/C=C\c2ccc([N+](=O)[O-])cc2)cc1
- mutagenic call (Test System: AMES SALMONELLA TYPHIMURIUM, Strain/Indicator: TA98 (NR), Metabolic Activation: NONE, Method: STANDARD PLATE): active; positive
- mutagenic call (Test System: AMES SALMONELLA TYPHIMURIUM, Strain/Indicator: TA98 (NR), Metabolic Activation: S-9, Method: STANDARD PLATE): active; positive
- mutagenic call [1]: active; positive
- mutagenic call (Test System: AMES SALMONELLA TYPHIMURIUM, Strain/Indicator: TA98, Metabolic Activation: S-9, Method: STANDARD PLATE): active; positive
- mutagenic call (Test System: AMES SALMONELLA TYPHIMURIUM, Strain/Indicator: TA100 (NR), Metabolic Activation: NONE, Method: STANDARD PLATE): inactive; negative
- mutagenic call (Test System: AMES SALMONELLA TYPHIMURIUM, Strain/Indicator: TA100 (NR), Metabolic Activation: S-9, Method: STANDARD PLATE): inactive; negative
- mutagenic call [2]: active; positive
- mutagenic call (Test System: AMES SALMONELLA TYPHIMURIUM, Strain/Indicator: TA100, Metabolic Activation: S-9, Method: STANDARD PLATE): active; positive

Compound: Cc1ccccc1C1=C(C(=O)O)O1
- mutagenic call [2]: inactive; negative

Compound: O=[N+]([O-])c1ccc2ccc3ccccc3c2c1
- mutagenic call (Test System: AMES SALMONELLA TYPHIMURIUM, Strain/Indicator: TA98(1,8-DNP6), Metabolic Activation: NONE, Method: STANDARD PLATE): active; positive
- mutagenic call (Test System: AMES SALMONELLA TYPHIMURIUM, Strain/Indicator: TA98(NR), Metabolic Activation: NONE, Method: STANDARD PLATE): active; positive
- mutagenic call [1]: active; positive
- mutagenic call [2]: active; positive
- mutagenic call (Test System: AMES SALMONELLA TYPHIMURIUM, Strain/Indicator: TA7001, Metabolic Activation: NONE, Method: PREINCUBATION): active; positive
- mutagenic call (Test System: AMES SALMONELLA TYPHIMURIUM, Strain/Indicator: TA7002, Metabolic Activation: NONE, Method: PREINCUBATION): active; positive
- mutagenic call (Test System: AMES SALMONELLA TYPHIMURIUM, Strain/Indicator: TA7003, Metabolic Activation: NONE, Method: PREINCUBATION): active; positive
- mutagenic call (Test System: AMES SALMONELLA TYPHIMURIUM, Strain/Indicator: TA7004, Metabolic Activation: NONE, Method: PREINCUBATION): active; positive
- mutagenic call (Test System: AMES SALMONELLA TYPHIMURIUM, Strain/Indicator: TA7005, Metabolic Activation: NONE, Method: PREINCUBATION): active; positive
- mutagenic call (Test System: AMES SALMONELLA TYPHIMURIUM, Strain/Indicator: TA7006, Metabolic Activation: NONE, Method: PREINCUBATION): active; positive
- mutagenic call (Test System: AMES SALMONELLA TYPHIMURIUM, Strain/Indicator: YG1021, Metabolic Activation: NONE, Method: STANDARD PLATE): active; positive
- mutagenic call (Test System: AMES SALMONELLA TYPHIMURIUM, Strain/Indicator: YG1024, Metabolic Activation: NONE, Method: STANDARD PLATE): active; positive
- mutagenic call (Test System: AMES SALMONELLA TYPHIMURIUM, Strain/Indicator: YG1026, Metabolic Activation: NONE, Method: STANDARD PLATE): active; positive
- mutagenic call (Test System: AMES SALMONELLA TYPHIMURIUM, Strain/Indicator: YG1029, Metabolic Activation: NONE, Method: STANDARD PLATE): active; positive
